Reference: ChEMBL document CHEMBL1137884, “Synthesis of ether analogues derived from HUN-7293 and evaluation as inhibitors of VCAM-1 expression” (Bioorg Med Chem Lett, 2004)
pIC50: −log10 of the molar value. Numbered stars: 1 amine (or outer) side, 2 acyl side, 3 side chain; on linkers, the order of the positions; unused ones are H or OH. Square brackets hold non-standard residues; d marks the D form. Peptide text beside a SMILES is read from it. NMeTrp(1-OMe) = CN[C@@H](Cc1cn(OC)c2ccccc12)C(=O)O; Butanoyl(2R-oxy,4-CN) = N#CCC[C@@H](O)C(=O)O; X1 = CCCC[C@@H](C)C[C@H](N[*:1])C(=O)[*:2]; NMeL = CN[C@@H](CC(C)C)C(=O)O; NMeA = CN[C@@H](C)C(=O)O

Tests used:
HMEC [1] = assay: inhibition of TNF-alpha-induced ICAM-1 expression in the human microvascular endothelial cell line HMEC-1; format: functional, cell-based
HMEC [2] = assay: inhibition of TNF-alpha-induced VCAM-1 expression in the human microvascular endothelial cell line HMEC-1; format: functional, cell-based

Row | Compound | pIC50 (HMEC [1]) | pIC50 (HMEC [2])
1 | CCCC[C@@H](C)C[C@H]1CN(C)[C@@H](C)C(=O)O[C@H](C)C(=O)N[C@@H](C[C@H](C)CCCC)C(=O)N(C)[C@@H](CC(C)C)C(=O)N[C@@H](CC(C)C)C(=O)N(C)[C@@H](Cc2cn(OC)c3ccccc23)C(=O)N1 | < 4.52 | 7.74
2 | CCCC[C@@H](C)C[C@@H]1NC(=O)[C@H](Cc2cn(OC)c3ccccc23)N(C)C(=O)[C@H](CC(C)C)NC(=O)[C@H](CC(C)C)N(C)C(=O)[C@H](C[C@H](C)CCCC)NC(=O)[C@@H](C)OC(=O)[C@H](C)N(C)C1=O | 6.75 | 8.70
3 | CCCC[C@@H](C)C[C@@H]1NC(=O)[C@H](Cc2cn(OC)c3ccccc23)N(C)C(=O)[C@H](CC(C)C)NC(=O)[C@H](CC(C)C)N(C)C(=O)[C@H](C[C@H](C)CCCC)NC(=O)COC[C@H](C)N(C)C1=O | – | 6.70
4 | CCCC[C@@H](C)C[C@@H]1NC(=O)[C@H](Cc2cn(OC)c3ccccc23)N(C)C(=O)[C@H](CC(C)C)NC(=O)[C@H](CC(C)C)N(C)C(=O)[C@H](C[C@H](C)CCCC)NC(=O)[C@H](C)OC[C@H](C)N(C)C1=O | < 4.52 | 6.20
5 | CCCC[C@@H](C)C[C@@H]1NC(=O)[C@H](Cc2cn(OC)c3ccccc23)N(C)C(=O)[C@H](CC(C)C)NC(=O)[C@H](CC(C)C)N(C)C(=O)[C@H](C[C@H](C)CCCC)NC(=O)[C@@H](C)OC[C@H](C)N(C)C1=O | 5.78 | 7.82
6 | CCCC[C@@H](C)C[C@H]1CN(C)[C@@H](C)C(=O)N[C@H](C)C(=O)N[C@@H](C[C@H](C)CCCC)C(=O)N(C)[C@@H](CC(C)C)C(=O)N[C@@H](CC(C)C)C(=O)N(C)[C@@H](Cc2cn(OC)c3ccccc23)C(=O)N1 | 5.16 | 7.04
7 | CCCC[C@@H](C)C[C@@H]1NC(=O)[C@H](Cc2cn(OC)c3ccccc23)N(C)C(=O)[C@H](CC(C)C)NC(=O)[C@H](CC(C)C)N(C)C(=O)[C@H](C[C@H](C)CCCC)NC(=O)[C@@H](CCC#N)OC(=O)[C@H](C)N(C)C1=O (cyclo(L[NMeTrp(1-OMe)][X1][NMeA][Butanoyl(2R-oxy,4-CN)][X1][NMeL])) | 7.60 | –
